According to US9833497B2, “Human originated EGF domain proteins and use of the same” (CHENGDU SOURCEBIO LIMITED-LIABILITY COMPANY, priority 2013, dated 2017):

Columns and labels:
Assay type in all cases: cell-based
[1] = test system: E. coli DH5α; assay: Antibacterial activity: MIC and growth curve against E. coli DH5α in 96-well plate; conditions: minimal inhibitory concentration against E. coli DH5α; 96-well plate, 5×10^5 CFU/mL, 37° C., judged after 8 h
Summary of the method: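 Log-phase DH5α (OD600 about 0.5, 37° C, 185 rpm in LB) was pelleted, resuspended in fresh LB and seeded at 5×10^5 CFU/mL with recombinant protein at 50, 25 and 12.5 μg/mL (two-fold series), in triplicate. Plates were shaken at 175 rpm, 37° C, and OD600 was read every 30 min. MIC was the lowest concentration with no growth.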

[2] = test system: E. coli BL21; assay: MIC against Gram-negative bacteria: E. coli BL21; conditions: 5×10^5 CFU/mL
Summary of the method: (§1)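 First, colonies from LB agar were grown in LB at 37° C, 185 rpm, to McFarland turbidity 0.5, then centrifuged and resuspended in fresh LB. Next, wells received 5×10^5 CFU/mL bacteria plus two-fold serially diluted EGF domain protein (triplicate). Finally, plates were shaken at 37° C and the no-growth concentration taken as MIC.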

[3] = test system: Pseudomonas aeruginosa; assay: MIC against Gram-negative bacteria: Pseudomonas aeruginosa; conditions: 5×10^5 CFU/mL
Summary of the method: as §1

[4] = test system: Klebsiella pneumonia; assay: MIC against Gram-negative bacteria: Klebsiella pneumonia; conditions: 5×10^5 CFU/mL
Summary of the method: as §1

[5] = test system: Enterobacter cloacae; assay: MIC against Gram-negative bacteria: Enterobacter cloacae; conditions: 5×10^5 CFU/mL
Summary of the method: as §1

[6] = test system: Aeromonas hydrophila; assay: MIC against Gram-negative bacteria: Aeromonas hydrophila; conditions: 5×10^5 CFU/mL
Summary of the method: as §1

[7] = test system: Citrobacter diversus; assay: MIC against Gram-negative bacteria: Citrobacter diversus; conditions: 5×10^5 CFU/mL
Summary of the method: as §1

[8] = test system: Moraxella catarrhalis; assay: MIC against Gram-negative bacteria: Moraxella catarrhalis; conditions: 5×10^5 CFU/mL
Summary of the method: as §1

[9] = test system: Proteus mirabilis; assay: MIC against Gram-negative bacteria: Proteus mirabilis; conditions: 5×10^5 CFU/mL
Summary of the method: as §1

[10] = test system: Proteus vulgaris; assay: MIC against Gram-negative bacteria: Proteus vulgaris; conditions: 5×10^5 CFU/mL
Summary of the method: as §1

[11] = test system: Serratia marcescens; assay: MIC against Gram-negative bacteria: Serratia marcescens; conditions: 5×10^5 CFU/mL
Summary of the method: as §1

[12] = 10 h cultivation at 37° C., two-fold serial dilution
[13] = E. coli BL21, 96-well plate, 37° C., 10 h
[14] = Pseudomonas aeruginosa, 96-well plate, 37° C., 10 h
[15] = Klebsiella pneumonia, 96-well plate, 37° C., 10 h
[16] = Enterobacter cloacae, 96-well plate, 37° C., 10 h
[17] = Aeromonas hydrophila, 96-well plate, 37° C., 10 h
[18] = Citrobacter diversus, 96-well plate, 37° C., 10 h
[19] = Moraxella catarrhalis, 96-well plate, 37° C., 10 h
[20] = Proteus mirabilis, 96-well plate, 37° C., 10 h
[21] = Proteus vulgaris, 96-well plate, 37° C., 10 h
[22] = Serratia marcescens, 96-well plate, 37° C., 10 h

PRT1163 (SVNSCAVNPCLHNGECVADNTSRGYHCRCPPSWQGDDCS; listed as Homo sapiens)
MIC [1]: 12.5 µg/mL | MIC E. coli BL21 [2, 12]: 25 µg/mL | MIC P. aeruginosa [3, 12]: 12.5 µg/mL | MIC K. pneumonia [4, 12]: 25 µg/mL | MIC E. cloacae [5, 12]: 12.5 µg/mL | MIC A. hydrophila [6, 12]: 12.5 µg/mL | MIC C. diversus [7, 12]: 12.5 µg/mL | MIC M. catarrhalis [8, 12]: 12.5 µg/mL | MIC P. mirabilis [9, 12]: 12.5 µg/mL | MIC P. vulgaris [10, 12]: 12.5 µg/mL | MIC S. marcescens [11, 12]: 25 µg/mL

PRT485 (QADPCKFLACGEFAQCVKNERTEEAECRCKPGYDSQGSL; listed as Homo sapiens)
MIC [1]: 50 µg/mL | MIC against E. coli BL21 ([2]; 96-well plate, 37° C., 10 h): 12.5 µg/mL | MIC against P. aeruginosa ([3]; 96-well plate, 37° C., 10 h): 50 µg/mL | MIC against K. pneumonia ([4]; 96-well plate, 37° C., 10 h): 25 µg/mL | MIC against E. cloacae ([5]; 96-well plate, 37° C., 10 h): 12.5 µg/mL | MIC against A. hydrophila ([6]; 96-well plate, 37° C., 10 h): 25 µg/mL | MIC against C. diversus ([7]; 96-well plate, 37° C., 10 h): 50 µg/mL | MIC against M. catarrhalis ([8]; 96-well plate, 37° C., 10 h): 25 µg/mL | MIC against P. mirabilis ([9]; 96-well plate, 37° C., 10 h): 12.5 µg/mL | MIC against P. vulgaris ([10]; 96-well plate, 37° C., 10 h): 25 µg/mL | MIC against S. marcescens ([11]; 96-well plate, 37° C., 10 h): 50 µg/mL

PRT610 (CSCDPSGSIDECNIETGRCVCKDNVEGFNCERCKPGFFNLESSNPRGCTP; listed as Homo sapiens)
MIC [1]: 50 µg/mL | MIC E. coli BL21 ([2]; 96-well plate, 37° C., 10 h): 25 µg/mL | MIC P. aeruginosa ([3]; 96-well plate, 37° C., 10 h): 12.5 µg/mL | MIC K. pneumonia ([4]; 96-well plate, 37° C., 10 h): 25 µg/mL | MIC E. cloacae ([5]; 96-well plate, 37° C., 10 h): 50 µg/mL | MIC A. hydrophila ([6]; 96-well plate, 37° C., 10 h): 12.5 µg/mL | MIC C. diversus ([7]; 96-well plate, 37° C., 10 h): 50 µg/mL | MIC M. catarrhalis ([8]; 96-well plate, 37° C., 10 h): 12.5 µg/mL | MIC P. mirabilis ([9]; 96-well plate, 37° C., 10 h): 50 µg/mL | MIC P. vulgaris ([10]; 96-well plate, 37° C., 10 h): 12.5 µg/mL | MIC S. marcescens ([11]; 96-well plate, 37° C., 10 h): 50 µg/mL

PRT127 (CSGHCTSYGTNCENGGKCLERYHGYSCDCSNTAYDGTFCN; listed as Homo sapiens)
MIC [1]: 12.5 µg/mL | MIC (μg/mL) E. coli BL21 [2, 13]: 12.5 µg/mL | MIC (μg/mL) P. aeruginosa [3, 14]: 12.5 µg/mL | MIC (μg/mL) K. pneumonia [4, 15]: 25 µg/mL | MIC (μg/mL) E. cloacae [5, 16]: 12.5 µg/mL | MIC (μg/mL) A. hydrophila [6, 17]: 25 µg/mL | MIC (μg/mL) C. diversus [7, 18]: 12.5 µg/mL | MIC (μg/mL) M. catarrhalis [8, 19]: 12.5 µg/mL | MIC (μg/mL) P. mirabilis [9, 20]: 12.5 µg/mL | MIC (μg/mL) P. vulgaris [10, 21]: 12.5 µg/mL | MIC (μg/mL) S. marcescens [11, 22]: 12.5 µg/mL

PRT699 (DVDECSSGAPPCGPHGHCTNTEGSFRCSCAPGYRAPSGRPGPCA; listed as Homo sapiens)
MIC [1]: 50 µg/mL | MIC E. coli BL21 ([2]; 96-well plate, 37° C., 10 h): 25 µg/mL | MIC P. aeruginosa ([3]; 96-well plate, 37° C., 10 h): 12.5 µg/mL | MIC K. pneumonia ([4]; 96-well plate, 37° C., 10 h): 25 µg/mL | MIC E. cloacae ([5]; 96-well plate, 37° C., 10 h): 50 µg/mL | MIC A. hydrophila ([6]; 96-well plate, 37° C., 10 h): 12.5 µg/mL | MIC C. diversus ([7]; 96-well plate, 37° C., 10 h): 50 µg/mL | MIC M. catarrhalis ([8]; 96-well plate, 37° C., 10 h): 25 µg/mL | MIC P. mirabilis ([9]; 96-well plate, 37° C., 10 h): 12.5 µg/mL | MIC P. vulgaris ([10]; 96-well plate, 37° C., 10 h): 25 µg/mL | MIC S. marcescens ([11]; 96-well plate, 37° C., 10 h): 50 µg/mL

PRT1246 (CKELCSCHPHGQCEDVTGQCTCHARRWGARCE; listed as Homo sapiens)
MIC [1]: 50 µg/mL | MIC against E. coli BL21 [2, 13]: 25 µg/mL | MIC against P. aeruginosa [3, 14]: 12.5 µg/mL | MIC against K. pneumonia [4, 15]: 25 µg/mL | MIC against E. cloacae [5, 16]: 50 µg/mL | MIC against A. hydrophila [6, 17]: 25 µg/mL | MIC against C. diversus [7, 18]: 12.5 µg/mL | MIC against M. catarrhalis [8, 19]: 25 µg/mL | MIC against P. mirabilis [9, 20]: 50 µg/mL | MIC against P. vulgaris [10, 21]: 25 µg/mL | MIC against S. marcescens [11, 22]: 12.5 µg/mL

PRT645 (EINECTVNPDICGAGHCINLPVRYTCICYEGYRFSEQQ; listed as Homo sapiens)
MIC [1]: 50 µg/mL | MIC E. coli BL21 ([2]; 96-well plate, 37° C., 10 h): 25 µg/mL | MIC P. aeruginosa ([3]; 96-well plate, 37° C., 10 h): 12.5 µg/mL | MIC K. pneumonia ([4]; 96-well plate, 37° C., 10 h): 25 µg/mL | MIC E. cloacae ([5]; 96-well plate, 37° C., 10 h): 50 µg/mL | MIC A. hydrophila ([6]; 96-well plate, 37° C., 10 h): 25 µg/mL | MIC C. diversus ([7]; 96-well plate, 37° C., 10 h): 12.5 µg/mL | MIC M. catarrhalis ([8]; 96-well plate, 37° C., 10 h): 50 µg/mL | MIC P. mirabilis ([9]; 96-well plate, 37° C., 10 h): 12.5 µg/mL | MIC P. vulgaris ([10]; 96-well plate, 37° C., 10 h): 50 µg/mL | MIC S. marcescens ([11]; 96-well plate, 37° C., 10 h): 12.5 µg/mL
